# Where two headings read alike, the source gives them in different places.
# Key:
# [1] = system: adult patients with Gaucher disease Type 3; test: Clinical study in GD-3 patients: safety and tolerability; assay type: in vivo, human; conditions: 11 patients, 52 weeks; most frequent mild headache and back pain (likely lumbar puncture related)
# Procedure: The endpoint assessments are related to safety, CSF biomarkers, pharmacokinetics/pharmacodynamics, systemic disease, and neuroimaging and neurological function (CNS/neurological manifestations).
# During the study patients were evaluated for safety and tolerability, CSF and plasma biomarkers (glucosylceramide, GL-1; glucosylsphingosine, lyso-GL1), pharmacokinetics, markers for systemic disease (spleen and liver volume measured by magnetic resonance imaging (MRI), platelet count, hemoglobin levels), indicia of interstitial lung disease (high resolution pulmonary computed tomography (CT)), and horizontal saccadic eye movement. In addition, exploratory biomarkers were quantified in CSF of GD3 patients: ceramide (the precursor of GL-1), chitotriosidase (CHITO), GM3, and GPNMB. Symptoms of ataxia were measured using the SARA scale, neurological symptoms were measured using the trail making test, and functional MRI was used to assess neural connectivity in the brain.
# The 11 patients at the second interim analysis included 7 men and 4 women. 8 patients were homozygous for the p.Leu483Pro (a.k.a. L444P) mutation in the […] gene, 2 were compound heterozygous for p.Phe523Ile/p.Leu483Pro variants, and one was compound heterozygous for p.Asp448His/p.Arg502Cys variants. Nine of the 11 patients were mildly ataxic at baseline, mostly with gait disorder. […]
# [2] = Study 2: ascending repeated-dose PK in healthy adults; assay type: in vivo, human; conditions: for AUC0-24, Geometric mean / AUC0-24, Mean / Cmax, Geometric mean / Cmax, Mean / tmax, median / CLR(0-24), Mean / CLss/F, Geometric mean / CLss/F, Mean / Ctrough, Geometric mean / Ctrough, Mean / CLR(0-24), Geometric mean / half-life: N = 9; for half-life: plasma
# Procedure: (§1) The study enrolled and randomized 36 healthy adults (19 men and 17 women) (n=9 each to group).
# (§2) Pharmacodynamic endpoints (plasma GL-1, GL-3, and GM3 concentrations) were assessed on Days 1-5, 8, 11, 13, and 14, at 0 hours […]; and on Day 15, at 24 hours after the Day 14 dose.
# [3] = system: plasma GM3 (GM3 ganglioside); test: Study 2: plasma GM3 pharmacodynamics; assay type: in vivo, human
# Procedure: as §1, §2
# [4] = system: healthy, human volunteers; test: Phase 1 studies: safety profile; assay type: in vivo
# Procedure: Compound 2 is also known as venglustat.
# In all studies, safety profile was assessed by monitoring treatment-emergent adverse events (TEAEs) through 10 days after last dose of study medication, including serious adverse events [SAEs]), ECG monitoring, laboratory values, and physical examinations.
# [5] = repeated once-daily doses from 5-20 mg
smiles,measurement,setting,value
"CC(C)(NC(=O)O[C@@H]1CN2CCC1CC2)c1csc(-c2ccc(F)cc2)n1 [Compound 2, (S)-quinuclidin-3-yl 2-(2-(4-fluorophenyl)thiazol-4-yl)propan-2-ylcarbamate]",adverse events,[1],No major adverse events
same,Ctrough values over time,"[2]; 5, 10, or 20 mg once daily for 14 days",reached a plateau after Day 5
same,median time of plasma Cmax,"[2]; 5, 10, or 20 mg once daily for 14 days, Days 1 and 14",2 to 5 h
same,"AUC0-24, Geometric mean","[2]; Day 1, 5 mg once daily",292 ng·h/mL
same,"AUC0-24, Mean","[2]; Day 1, 5 mg once daily",296 ng·h/mL
same,"Cmax, Geometric mean","[2]; Day 1, 5 mg once daily",18.2 ng/mL
same,"Cmax, Mean","[2]; Day 1, 5 mg once daily",18.5 ng/mL
same,"tmax, median","[2]; Day 1, 5 mg once daily",5.00 h
same,"AUC0-24, Geometric mean","[2]; Day 1, 10 mg once daily",623 ng·h/mL
same,"AUC0-24, Mean","[2]; Day 1, 10 mg once daily",635 ng·h/mL
same,"Cmax, Geometric mean","[2]; Day 1, 10 mg once daily",37.8 ng/mL
same,"Cmax, Mean","[2]; Day 1, 10 mg once daily",38.5 ng/mL
same,"tmax, median","[2]; Day 1, 10 mg once daily",3.00 h
same,"AUC0-24, Geometric mean","[2]; Day 1, 20 mg once daily","1,080 ng · h/mL"
same,"AUC0-24, Mean","[2]; Day 1, 20 mg once daily","1,100 ng · h/mL"
same,"Cmax, Geometric mean","[2]; Day 1, 20 mg once daily",66.5 ng/mL
same,"Cmax, Mean","[2]; Day 1, 20 mg once daily",68.0 ng/mL
same,"tmax, median","[2]; Day 1, 20 mg once daily",3.07 h
same,"AUC0-24, Geometric mean","[2]; Day 14, 5 mg once daily",632 ng·h/mL
same,"AUC0-24, Mean","[2]; Day 14, 5 mg once daily",642 ng·h/mL
same,"CLR(0-24), Mean","[2]; Day 14, 5 mg once daily",1.55 L/h
same,"CLss/F, Geometric mean","[2]; Day 14, 5 mg once daily",5.9 L/h
same,"CLss/F, Mean","[2]; Day 14, 5 mg once daily",5.98 L/h
same,"Cmax, Geometric mean","[2]; Day 14, 5 mg once daily",36.5 ng/mL
same,"Cmax, Mean","[2]; Day 14, 5 mg once daily",37.0 ng/mL
same,"Ctrough, Geometric mean","[2]; Day 14, 5 mg once daily",19.0 ng/mL
same,"Ctrough, Mean","[2]; Day 14, 5 mg once daily",19.4 ng/mL
same,"tmax, median","[2]; Day 14, 5 mg once daily",3.00 h
same,"AUC0-24, Geometric mean","[2]; Day 14, 10 mg once daily","1,490 ng · h/mL"
same,"AUC0-24, Mean","[2]; Day 14, 10 mg once daily","1,550 ng · h/mL"
same,"CLR(0-24), Geometric mean","[2]; Day 14, 10 mg once daily",1.4 L/h
same,"CLR(0-24), Mean","[2]; Day 14, 10 mg once daily",1.49 L/h
same,"CLss/F, Geometric mean","[2]; Day 14, 10 mg once daily",5.0 L/h
same,"CLss/F, Mean","[2]; Day 14, 10 mg once daily",5.13 L/h
same,"Cmax, Geometric mean","[2]; Day 14, 10 mg once daily",86.0 ng/mL
same,"Cmax, Mean","[2]; Day 14, 10 mg once daily",89.7 ng/mL
same,"Ctrough, Geometric mean","[2]; Day 14, 10 mg once daily",47.5 ng/mL
same,"Ctrough, Mean","[2]; Day 14, 10 mg once daily",49.9 ng/mL
same,"tmax, median","[2]; Day 14, 10 mg once daily",2.00 h
same,"AUC0-24, Geometric mean","[2]; Day 14, 20 mg once daily","2,340 ng · h/mL"
same,"AUC0-24, Mean","[2]; Day 14, 20 mg once daily","2,420 ng · h/mL"
same,"CLR(0-24), Geometric mean","[2]; Day 14, 20 mg once daily",2.0 L/h
same,"CLR(0-24), Mean","[2]; Day 14, 20 mg once daily",2.07 L/h
same,"CLss/F, Geometric mean","[2]; Day 14, 20 mg once daily",6.4 L/h
same,"CLss/F, Mean","[2]; Day 14, 20 mg once daily",6.58 L/h
same,"Cmax, Geometric mean","[2]; Day 14, 20 mg once daily",137 ng/mL
same,"Cmax, Mean","[2]; Day 14, 20 mg once daily",142 ng/mL
same,"Ctrough, Geometric mean","[2]; Day 14, 20 mg once daily",69.9 ng/mL
same,"Ctrough, Mean","[2]; Day 14, 20 mg once daily",73.3 ng/mL
same,"tmax, median","[2]; Day 14, 20 mg once daily",3.00 h
same,half-life,"[2]; both sexes, human, oral, 5 mg, Day 14, 5 mg once daily, read-out: t1/2, Geometric mean (converted)",29 h
same,half-life,"[2]; both sexes, human, oral, 5 mg, Day 14, 5 mg once daily, read-out: t1/2, Mean (converted)",29.3 h
same,half-life,"[2]; both sexes, human, oral, 10 mg, Day 14, 10 mg once daily, read-out: t1/2, Geometric mean (converted)",31.2 h
same,half-life,"[2]; both sexes, human, oral, 10 mg, Day 14, 10 mg once daily, read-out: t1/2, Mean (converted)",31.3 h
same,half-life,"[2]; both sexes, human, oral, 20 mg, Day 14, 20 mg once daily, read-out: t1/2, Geometric mean (converted)",34.5 h
same,half-life,"[2]; both sexes, human, oral, 20 mg, Day 14, 20 mg once daily, read-out: t1/2, Mean (converted)",35 h
same,CL renal,"[2]; both sexes, human, urine and plasma, oral, After 14 once-daily doses, 5-20 mg, read-out: Mean CLR(0-24)",24.8 to 34.5 mL/min
same,effect of age and gender on accumulation,[2]; [5],neither age nor gender affected accumulation
same,time to steady state,[2]; [5],≤ 5 days
same,"Mean plasma GM3 level, % of baseline","[3]; Day 15, 5-mg dose group",42.7 % of baseline
same,"Mean plasma GM3 level, % of baseline","[3]; Day 15, 10-mg dose group",49.4 % of baseline
same,subjects with GM3 below the LLOQ,"[3]; Day 15, 10-mg dose group",1 subjects
same,"Mean plasma GM3 level, % of baseline","[3]; Day 15, 20-mg dose group",57.8 % of baseline
same,subjects with GM3 below the LLOQ,"[3]; Day 15, 20-mg dose group",2 subjects
same,start day of maximal sustained GM3 decreases,[3]; all Compound 2 dose groups,13 days
same,Vital signs,[4]; all Phase 1 studies,no relevant changes from baseline
same,hematologic or biochemical abnormalities,[4]; all Phase 1 studies,No clinically relevant hematologic or biochemical abnormalities
same,"deaths, SAEs, severe TEAEs, TEAEs leading to study discontinuation","[4]; all Phase 1 studies, through 10 days after last dose","no deaths, SAEs, severe TEAEs, or TEAEs leading to study discontinuation"
same,ECG parameters,"[4]; single ascending dose and food effect studies, multiple dose study: no statistically significant change versus placebo",no relevant changes

# Source: patent US12083115B2, “Methods for treating neurological symptoms associated with lysosomal storage diseases” (Genzyme Corporation, priority 2020, dated 2024)
